In PubChem BioAssay (NCI):
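Five compound concentrations were applied to cells in 96-well plates for 48 hours; endpoints were derived by simple linear interpolation of the resulting dose-response curve. The concentration for 50% growth inhibition is given as GI50. TGI: concentration producing complete growth inhibition.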

Experiments:
Test in all cases: inhibition of tumour cell growth, NCI panel, 48 h; in the data active = GI50 below about 0.43 µM; inactive = the rest
HS 578T breast = tested on: HS 578T breast
MDA-MB-231 breast = tested on: MDA-MB-231 breast
786-0 renal = tested on: 786-0 renal
MCF7 breast = tested on: MCF7 breast
SF-268 CNS = tested on: SF-268 CNS
UACC-257 melanoma = tested on: UACC-257 melanoma
SF-295 CNS = tested on: SF-295 CNS
TK-10 renal = tested on: TK-10 renal
A498 renal = tested on: A498 renal
T-47D breast = tested on: T-47D breast
SK-MEL-5 melanoma = tested on: SK-MEL-5 melanoma
MOLT-4 leukemia = tested on: MOLT-4 leukemia
ACHN renal = tested on: ACHN renal
RXF 393 renal = tested on: RXF 393 renal
MDA-MB-435 = tested on: MDA-MB-435
OVCAR-3 ovarian = tested on: OVCAR-3 ovarian
OVCAR-8 ovarian = tested on: OVCAR-8 ovarian
OVCAR-4 ovarian = tested on: OVCAR-4 ovarian
U251 CNS = tested on: U251 CNS
M14 melanoma = tested on: M14 melanoma
CCRF-CEM leukemia = tested on: CCRF-CEM leukemia
SK-MEL-28 melanoma = tested on: SK-MEL-28 melanoma
RPMI-8226 leukemia = tested on: RPMI-8226 leukemia
KM12 colon = tested on: KM12 colon
NCI-H522 lung = tested on: NCI-H522 lung
SK-OV-3 ovarian = tested on: SK-OV-3 ovarian
DU-145 prostate = tested on: DU-145 prostate
EKVX NSCLC = tested on: EKVX NSCLC
UO-31 renal = tested on: UO-31 renal
SN12C renal = tested on: SN12C renal
HOP-92 NSCLC = tested on: HOP-92 NSCLC
A549 NSCLC = tested on: A549 NSCLC
CAKI-1 renal = tested on: CAKI-1 renal
SNB-19 CNS = tested on: SNB-19 CNS
MALME-3M melanoma = tested on: MALME-3M melanoma
HT29 colon = tested on: HT29 colon
HCT-116 colon = tested on: HCT-116 colon
NCI-H460 lung = tested on: NCI-H460 lung
HCC-2998 colon = tested on: HCC-2998 colon
IGROV1 ovarian = tested on: IGROV1 ovarian
HCT-15 colon = tested on: HCT-15 colon
NCI-H23 lung = tested on: NCI-H23 lung
SW-620 colon = tested on: SW-620 colon
SR leukemia = tested on: SR leukemia
SNB-75 CNS = tested on: SNB-75 CNS
UACC-62 melanoma = tested on: UACC-62 melanoma
HL-60(TB) leukemia = tested on: HL-60(TB) leukemia
COLO 205 colon = tested on: COLO 205 colon
NCI-H226 lung = tested on: NCI-H226 lung
SF-539 CNS = tested on: SF-539 CNS
SK-MEL-2 melanoma = tested on: SK-MEL-2 melanoma
LOX IMVI melanoma = tested on: LOX IMVI melanoma
NCI/ADR-RES ovarian = tested on: NCI/ADR-RES ovarian
K-562 leukemia = tested on: K-562 leukemia
BT-549 breast = tested on: BT-549 breast
HOP-62 NSCLC = tested on: HOP-62 NSCLC
OVCAR-5 ovarian = tested on: OVCAR-5 ovarian
PC-3 prostate = tested on: PC-3 prostate

COc1cc2c(cc1OS(C)(=O)=O)N=C[C@@H]1CCCN1C2=O
> 100 µM: TGI (HS 578T breast) | TGI (MDA-MB-231 breast) | TGI (786-0 renal) | TGI (MCF7 breast) | TGI (SF-268 CNS) | TGI (UACC-257 melanoma) | TGI (SF-295 CNS) | TGI (TK-10 renal) | TGI (A498 renal) | TGI (T-47D breast) | TGI (SK-MEL-5 melanoma) | TGI (MOLT-4 leukemia) | TGI (ACHN renal) | TGI (RXF 393 renal) | TGI (MDA-MB-435) | TGI (OVCAR-3 ovarian) | TGI (OVCAR-8 ovarian) | TGI (OVCAR-4 ovarian) | TGI (U251 CNS) | TGI (M14 melanoma) | TGI (CCRF-CEM leukemia) | TGI (SK-MEL-28 melanoma) | TGI (RPMI-8226 leukemia) | TGI (KM12 colon) | TGI (NCI-H522 lung) | TGI (SK-OV-3 ovarian) | TGI (DU-145 prostate) | TGI (EKVX NSCLC) | TGI (UO-31 renal) | TGI (SN12C renal) | TGI (HOP-92 NSCLC) | TGI (A549 NSCLC) | TGI (CAKI-1 renal) | TGI (SNB-19 CNS) | TGI (MALME-3M melanoma) | TGI (HT29 colon) | TGI (HCT-116 colon) | TGI (NCI-H460 lung) | TGI (HCC-2998 colon) | TGI (IGROV1 ovarian) | TGI (HCT-15 colon) | TGI (NCI-H23 lung) | TGI (SW-620 colon) | TGI (SR leukemia) | TGI (SNB-75 CNS) | TGI (UACC-62 melanoma) | TGI (HL-60(TB) leukemia) | TGI (COLO 205 colon) | TGI (NCI-H226 lung) | TGI (SF-539 CNS) | TGI (SK-MEL-2 melanoma) | TGI (LOX IMVI melanoma)

c1ccc(-c2c(-c3ccccc3)[n+](Cc3ccc4ccccc4c3)cn2Cc2ccc3ccccc3c2)cc1
2.9 µM: TGI (ACHN renal)
active: GI50 (HOP-92 NSCLC) 0.122 µM
5.12 µM: TGI (NCI/ADR-RES ovarian)
1.26 µM: TGI (HOP-92 NSCLC)
4.91 µM: TGI (HS 578T breast)
inactive: GI50 (HS 578T breast) 1.74 µM | GI50 (ACHN renal) 1.47 µM | GI50 (NCI/ADR-RES ovarian) 2.13 µM

Cc1nnc2n1N=C(c1cc(F)c(Cl)cc1Cl)/C(=C/c1ccc(-c3ccc([N+](=O)[O-])cc3)o1)S2
> 100 µM: TGI (HS 578T breast) | TGI (786-0 renal) | TGI (MCF7 breast) | TGI (SF-268 CNS) | TGI (UACC-257 melanoma) | TGI (SF-295 CNS) | TGI (A498 renal) | TGI (T-47D breast) | TGI (K-562 leukemia) | TGI (SK-MEL-5 melanoma) | TGI (MOLT-4 leukemia) | TGI (ACHN renal) | TGI (MDA-MB-435) | TGI (OVCAR-3 ovarian) | TGI (OVCAR-8 ovarian) | TGI (OVCAR-4 ovarian) | TGI (U251 CNS) | TGI (M14 melanoma) | TGI (CCRF-CEM leukemia) | TGI (BT-549 breast) | TGI (SK-MEL-28 melanoma) | TGI (RPMI-8226 leukemia) | TGI (KM12 colon) | TGI (NCI-H522 lung) | TGI (SK-OV-3 ovarian) | TGI (EKVX NSCLC) | TGI (UO-31 renal) | TGI (SN12C renal) | TGI (HOP-92 NSCLC) | TGI (A549 NSCLC) | TGI (CAKI-1 renal) | TGI (SNB-19 CNS) | TGI (MALME-3M melanoma) | TGI (HT29 colon) | TGI (NCI/ADR-RES ovarian) | TGI (HCT-116 colon) | TGI (NCI-H460 lung) | TGI (HCC-2998 colon) | TGI (IGROV1 ovarian) | TGI (HCT-15 colon) | TGI (NCI-H23 lung) | TGI (HOP-62 NSCLC) | TGI (SW-620 colon) | TGI (SR leukemia) | TGI (OVCAR-5 ovarian) | TGI (UACC-62 melanoma) | TGI (HL-60(TB) leukemia) | TGI (COLO 205 colon) | TGI (PC-3 prostate) | TGI (SK-MEL-2 melanoma) | TGI (LOX IMVI melanoma)
